Reference: article PMC8775380, “A Complexed Crystal Structure of a Single-Stranded DNA-Binding Protein with Quercetin and the Structural Basis of Flavonol Inhibition Specificity” (International Journal of Molecular Sciences, 2022)

Tests used:
[1] = biological target: T1, Pseudomonas aeruginosa single-stranded DNA-binding protein (PaSSB) (Pseudomonas aeruginosa, UniProt P40947); assay: EMSA, inhibition of PaSSB binding to biotin-labeled dT35 ssDNA; type: biochemical; set-up: gene ssb; purified recombinant PaSSB
T1 sequence (P40947 2-165): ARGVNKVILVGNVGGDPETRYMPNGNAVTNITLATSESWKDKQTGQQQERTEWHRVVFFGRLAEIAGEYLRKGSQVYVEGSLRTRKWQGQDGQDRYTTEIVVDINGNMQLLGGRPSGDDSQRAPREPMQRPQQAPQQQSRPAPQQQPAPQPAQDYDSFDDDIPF

[2] = biological target: T1, Pseudomonas aeruginosa single-stranded DNA-binding protein (PaSSB); assay: X-ray crystal structure of the complex, […] Å; set-up: gene ssb; recombinant PaSSB; amino acids 114–165 not observed in the structure
[3] = biological target: PaSSB (single-stranded DNA-binding protein) (Pseudomonas aeruginosa, UniProt P40947 1-165); assay: EMSA; no flavonol; protein concentration at 50% bound; EMSA: 40 mM Tris-HCl pH 7.5, 50 mM NaCl, 37 °C 60 min, DNA 30 fmol/uL, PaSSB 0-5 uM; 8% native PAGE in TBE; flavonols dissolved in 10% DMSO; conditions: protein: recombinant; chain copies: 4; label: biotin (3' in Results, 5' in Methods); single strand

O=c1c(O)c(-c2cc(O)c(O)c(O)c2)oc2cc(O)cc(O)c12 [myricetin]
IC50 [1]: 2800 ± 400 nM

O=c1c(O)c(-c2ccc(O)c(O)c2)oc2cc(O)cc(O)c12 [quercetin]
X-ray crystal structure of the complex, 2.32 Å [2]: The electron density of quercetin was well-defined and indicated the presence of quercetin in the structure of PaSSB

TTTTTTTTTTTTTTTTTTTTTTTTTTTTTTTTTTT (ssDNA) [dT35]
apparent K (half saturation) [3]: 548 ± 36 nM
